These results are taken from patent publication US10098895B2, “Treatment of symptoms related to neurodegenerative disorders through pharmacological dermal activation of cranial nerves” (GLIA, LLC, priority 2016, dated 2018).

This series deals with Parkinson's disease symptoms. As to the kind of experiment: Example 1: Parkinson's disease patient, dermal application to forehead and ear conchae. How it is done: A person was diagnosed with the early stages of Parkinson's disease in December of 2014. Their symptoms included tremors in the hands, impaired short term memory, slow and uncontrolled rigid movements while walking and eating, and declining ocular blink function. The patient also had dry eyes with hyper-tearing, burning, and itching.
The patient was also treated with progesterone 1% on the forehead initially once daily beginning in March 2015. […] The progesterone was applied as needed for about a year.
Instead of the prescribed regimen, the patient began dermal application of dronabinol 1.25 mg 2 times daily to three sites: (i) the forehead, (ii) the concha of the left ear, and (iii) the concha of the right ear. Each dose of 1.25 mg was divided equally between the three application sites. This treatment regimen began Friday Jun. 10, 2016 concurrent with the discontinuation of rasagiline.
In February 2017, the patient, who suffers from debilitating moderate spinal stenosis, started taking Azilect (rasagiline) and carbidopa-levodopa to improve their walking and flexibility. […] The patient decided that, together with the prescribed medications, they would switch from dronabinol to topical testosterone gel applied to the forehead and ear conchae to see if this would impact their longstanding low testosterone levels.
In March 2017, topical testosterone gel application was instituted as an adjunct to is the prescribed Azilect and carbidopa-levodopa.
The patient voluntarily stopped topical testosterone for 3 weeks in June 2017. […] At the end of 3 weeks, topical testosterone was re-instituted as an adjunct to the prescribed medications.

For `CC(=O)[C@H]1CC[C@H]2[C@@H]3CCC4=CC(=O)CC[C@]4(C)[C@H]3CC[C@]12C` [progesterone], the adverse events result (human, in vivo) was “no adverse events were noted”. Besides, the “ocular symptoms of burning and itching” value (progesterone 1% on the forehead, initially once daily, then as needed, on oral rasagiline) is “relieved their ocular symptoms of burning and itching”. Besides, the “dry eye disease symptoms” value (progesterone 1% to the forehead once every week, July 2016 to August 2017) was “fully manage dry eye disease symptoms”.
